Measurements reported in patent US10682345B2, “Muscarinic antagonists and combinations thereof for the treatment of airway disease in horses” (Boehringer Ingelheim Vetmedica GmbH, priority 2014, dated 2020).

What was measured:
RAO horses [1] = assay: Phase II: cross-over, blinded mouldy hay challenge study, 7 days treatment; format: in vivo, horse; details: for EL values over time / ΔPL values over time: Days 4 and 8 compared to Day 1; for RL values over time: clenbuterol group and 800 μg LAMA 1 group
Experimental: LAMA 1 is investigated in a cross-over, blinded mouldy hay challenge study. 8 RAO horses are examined in the study, which is divided into an acclimation and a treatment phase. Placebo for LAMA 1 is administered once daily per inhalation via the Equine Inhaler device to all horses for 1 week in the acclimation period. LAMA 1 and clenbuterol are administered to the horses in a cross-over design in the treatment phase. The horses are challenged by exposure to mouldy hay throughout the acclimation and treatment phases. LAMA 1 is administered with the doses of 200 μg (2 actuations)/400 μg (4 actuations)/800 μg (8 actuations)/horse (ex-RESPIMAT®) once daily for 7 days per inhalation via the Equine Inhaler device. Nozzle A and a commercially available RESPIMAT® is used in the study. Clenbuterol is administered with a dose of 0.8 μg/kg per os, twice daily for 7 days. Lung function variables (change in transpulmonary pressure (ΔPL), lung resistance (RL) and lung elastance (EL)), breathing effort score, Borborygmi score, blood gas analysis are examined during the study.

[2] = Kallos-Pagel Model, effects vs. tiotropium; format: in vivo
RAO horses [3] = assay: Phase I and IV: mouldy hay challenge, single inhaled administration, lung function for 24 h; format: in vivo, horse
Experimental: LAMA 1 is investigated in two RAO horses at different phases or periods as part of a mouldy hay challenge study. The horses are challenged every day by exposure to mouldy hay. LAMA 1 is administered via the Equine Inhaler device at different doses or formulations. Lung function parameters (change in transpulmonary pressure (ΔPL), lung resistance (RL) and lung elastance (EL)) are measured for 24 h. A single administration of 800 μg LAMA 1 (8 actuations in aqueous formulation) is performed per inhalation to two RAO horses (ID numbers: 312 and 91) in phase I. Two RAO horses are treated with LAMA 1 in phase IV (ID numbers: 40 and 91), which can be divided into three periods. 2000 μg LAMA 1 (20 actuations in aqueous formulation) is administered per inhalation in period 1. 2000 μg LAMA 1 ([…] in ethanolic formulation) is administered per inhalation in period 2. 2000 μg LAMA 1 (20 actuations in ethanolic formulation) is administered per inhalation in period 3.

Hm3 = Hm3 (Homo sapiens, UniProt P20309); assay: Binding to Hm3 receptor (mean KD, dissociation half-life)
Hm3, sequence (P20309 whole entry): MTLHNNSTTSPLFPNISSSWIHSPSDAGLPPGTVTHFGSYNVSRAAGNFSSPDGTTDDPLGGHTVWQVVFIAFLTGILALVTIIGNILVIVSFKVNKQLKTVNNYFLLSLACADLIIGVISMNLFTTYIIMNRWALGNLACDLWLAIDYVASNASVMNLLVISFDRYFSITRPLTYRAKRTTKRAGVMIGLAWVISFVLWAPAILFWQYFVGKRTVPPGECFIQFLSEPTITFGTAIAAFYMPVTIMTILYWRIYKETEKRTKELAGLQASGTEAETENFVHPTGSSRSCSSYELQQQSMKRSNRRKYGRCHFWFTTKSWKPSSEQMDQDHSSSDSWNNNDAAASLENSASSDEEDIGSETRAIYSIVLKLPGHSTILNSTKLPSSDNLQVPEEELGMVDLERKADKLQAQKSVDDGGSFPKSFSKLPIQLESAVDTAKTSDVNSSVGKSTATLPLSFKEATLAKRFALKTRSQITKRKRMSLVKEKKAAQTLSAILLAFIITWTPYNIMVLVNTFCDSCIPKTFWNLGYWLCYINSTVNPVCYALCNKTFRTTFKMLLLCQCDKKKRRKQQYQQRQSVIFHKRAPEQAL

healthy horses = assay: Phase III: ECG measurements for 48 h after single inhalation; format: in vivo, horse; details: single 800 μg inhalation, aqueous formulation, two healthy horses
Experimental: A single administration of 800 μg LAMA 1 (8 actuations in aqueous formulation) is performed per inhalation to two healthy horses in phase III. Subsequently, ECG measurements are done for 48 h.

[4] = 800 μg group, Day 7 compared to Day 0
[5] = day 4, all LAMA 1 groups (200, 400, 800 μg)

| SMILES | pH in arterial blood (RAO horses [1]; [4]) | paCO2 in arterial blood (RAO horses [1]; [4]) | EL values over time (RAO horses [1]) | ΔPL values over time (RAO horses [1]) | Improvement in lung function after one week, compared with clenbuterol (RAO horses [1]; LAMA 1 once daily for one week, clenbuterol twice daily for one week) | RL values over time (RAO horses [1]) | Change in EL 30 min after administration (RAO horses [1]; day 4, 200 and 400 μg LAMA 1) | Change in ΔPL 30 min after administration (RAO horses [1]; day 4, 200 and 400 μg LAMA 1) | EL 30 min after administration vs pre-treatment (RAO horses [1]; [5]) | RL 30 min after administration vs pre-treatment (RAO horses [1]; [5]) | ΔPL 30 min after administration vs pre-treatment (RAO horses [1]; [5]) | Effects in the Kallos-Pagel Model: protection ([2]; acute and chronic) [h] | Effects in the Kallos-Pagel Model vs. tiotropium: lower efficacy (chronic) ([2]; chronic, vs. tiotropium) [fold] | Lung function variables at 24 h after single administration (RAO horses [3]; 24 h, compared with pre-treatment values) | Time until which lung function values continue to drop (RAO horses [3]; depending on lung function parameter, dose or formulation) [h] | Start of decrease in lung function variables (ΔPL, RL, EL) after administration (RAO horses [3]; single inhalation of 800 μg or 2000 μg, aqueous or ethanolic formulation) [min] | Kd (Hm3) [nM] | ECG: abnormal observation (healthy horses) | ECG: arrhythmias (healthy horses) | Breathing effort score (RAO horses [1]; study day 6, clenbuterol 0.8 μg/kg per os twice daily compared with 2 or 4 actuations of LAMA 1) |
| --- | --- | --- | --- | --- | --- | --- | --- | --- | --- | --- | --- | --- | --- | --- | --- | --- | --- | --- | --- | --- |
| CC(C(=O)O[C@H]1CC2C3O[C@@H]3[C@H](C1)[N+]2(C)C)(c1ccccc1)c1ccccc1 (stereo partly drawn) [LAMA 1, (1α,2β,4β,5α,7β)-3-Oxa-9-azoniatricyclo [3.3.1.0^2.4] nonane, 9,9-dimethyl-7-(1-oxo-2,2-diphenylpropoxy)-bromide] | increases | reduces significantly | None of the treatments (LAMA 1 or clenbuterol) alters significantly | None of the treatments (LAMA 1 or clenbuterol) alters significantly | comparable to the significant improvement in lung function after the twice daily administration of clenbuterol | significantly reduced | statistically significant | statistically significant | decrease | decrease | decrease | 24 | 10 | below or reach the pre-treatment values | 2 to 8 | 5 | 0.4 | Only one observation is classified as either a first-degree heart block with aberrant intraventricular repolarization, or an artifact | Physiological arrhythmias are noted in both horses before and following the administration |  |
| CC(C)(C)NCC(O)c1cc(Cl)c(N)c(Cl)c1 (centres unmarked) [clenbuterol, reference compound] |  |  | None of the treatments (LAMA 1 or clenbuterol) alters significantly | None of the treatments (LAMA 1 or clenbuterol) alters significantly |  | significantly reduced |  |  |  |  |  |  |  |  |  |  |  |  |  | significantly smaller breathing effort scores |
